Drawing on patent US20230081426A1, “COMPOUNDS AND METHODS FOR KRAS MODULATION AND INDICATIONS THEREFOR” (Plexxikon Inc., priority 2020, published 2023), this text covers IC50 for 17 molecules.

Assay [1] addresses T1, G12D-mutant human KRAS (amino acid residues 1-188) (Homo sapiens, UniProt P01116, G12D).
T1 construct: G12D or G12C-mutant human KRAS (amino acid residues 1-188) with FLAG tag; made in house; host or cells: E. coli
In words: KRAS Binding Disruption Assay (AlphaScreen; biotinylated KRpep-2d analogue or RAF1-RBD), G12D. To be noted: KRAS G12D; geometric mean; read-out: KRAS GMean IC50 (uM) MUTATION: G12D. An outline of the steps:
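Mutant KRAS (5-20 nM) incubated 1 h at 25° C with test compound and 5-20 nM biotinylated KRpep-2d analogue or RAF1-RBD in 20 mM HEPES pH 7.5, 100 mM NaCl, 5 mM MgCl2, 0.01% Tween-20, 0.01% BSA.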
(In general: Bead proximity is the source of the signal in Alpha formats.)

Assay [2] concerns the target T2, G12V-mutant human KRAS (amino acid residues 1-188) (Homo sapiens, UniProt P01116, G12V).
T2 construct: G12V-mutant human KRAS (amino acid residues 1-188) with FLAG tag was purified from E. coli; made in house; host or cells: E. coli
The experiment in a line: KRAS Binding Competition Assay (AlphaScreen; biotinylated KRpep-2d analogue), G12V. The note with it: geometric mean, read-out: KRAS GMean IC50 (uM) MUTATION: G12V.

What is called IC50 is the concentration that inhibits the measured activity by half.

The structures appear in SMILES notation.

On to `CN1CCC[C@H]1COc1nc(N2[C@@H]3CC[C@H]2CNC3)c2ccc(-c3ccc4ccccc4c3)cc2n1` [P-0258, 4-((1R,5S)-3,8-diazabicyclo[3.2.1]octan-8-yl)-2-(((S)-1-methylpyrrolidin-2-yl)methoxy)-7-(naphthalen-2-yl)quinazoline], for which the IC50 in assay [1] and in assay [2] was 10 to 100 µM in each case.

Turning to `CN1CCC[C@H]1COc1nc(N2[C@@H]3CC[C@H]2CNC3)c2ccc(-c3c(O)ccc4ccccc34)cc2n1` [P-0259, 1-(4-((1R,5S)-3,8-diazabicyclo[3.2.1]octan-8-yl)-2-(((S)-1-methylpyrrolidin-2-yl)methoxy)quinazolin-7-yl)naphthalen-2-ol], the figures for the IC50 in assay [1] and in assay [2] were 0.0001 to 10 µM and 10 to 100 µM, respectively.

As for `CN1CCC[C@H]1COc1nc(N2[C@@H]3CC[C@H]2CNC3)c2ccc(-c3cncc(Br)c3Cl)cc2n1` [P-0260, 4-((1R,5S)-3,8-diazabicyclo[3.2.1]octan-8-yl)-7-(5-bromo-4-chloropyridin-3-yl)-2-(((S)-1-methylpyrrolidin-2-yl)methoxy)quinazoline], the IC50 in assay [1] and in assay [2] was 10 to 100 µM in each case.

Take `Cc1ccnc(-c2ccc3c(N4[C@@H]5CC[C@H]4CNC5)nc(OC[C@@H]4CCCN4C)nc3c2)c1C` [P-0261, 4-((1R,5S)-3,8-diazabicyclo[3.2.1]octan-8-yl)-7-(3,4-dimethylpyridin-2-yl)-2-(((S)-1-methylpyrrolidin-2-yl)methoxy)quinazoline]: the half-maximal inhibitory concentration (IC50) in assay [1] and in assay [2] was 100 to 1000 µM in each case.

As to `CN1CCC[C@H]1COc1nc(N2[C@@H]3CC[C@H]2CNC3)c2ccc(-c3cc(O)cc4cccnc34)cc2n1` [P-0262, 8-(4-((1R,5S)-3,8-diazabicyclo[3.2.1]octan-8-yl)-2-(((S)-1-methylpyrrolidin-2-yl)methoxy)quinazolin-7-yl)quinolin-6-ol], the IC50 in assay [1] and in assay [2] was 10 to 100 µM in each case.

As to `CN1CCC[C@H]1COc1nc(N2[C@@H]3CC[C@H]2CNC3)c2ccc(-c3cc([N+](=O)[O-])cc4ccccc34)cc2n1` [P-0263, 4-((1R,5S)-3,8-diazabicyclo[3.2.1]octan-8-yl)-2-(((S)-1-methylpyrrolidin-2-yl)methoxy)-7-(3-nitronaphthalen-1-yl)quinazoline], the IC50 in assay [1] and in assay [2] was 10 to 100 µM in each case.

Take `CN1CCC[C@H]1COc1nc(N2[C@@H]3CC[C@H]2CNC3)c2ccc(-c3c(Cl)cccc3Cl)cc2n1` [P-0264, 4-((1R,5S)-3,8-diazabicyclo[3.2.1]octan-8-yl)-7-(2,6-dichlorophenyl)-2-(((S)-1-methylpyrrolidin-2-yl)methoxy)quinazoline]: the IC50 in assay [1] and in assay [2] was 10 to 100 µM each time.

Consider `CN1CCC[C@H]1COc1nc(N2[C@@H]3CC[C@H]2CNC3)c2ccc(-c3cc(N)cc4ccccc34)cc2n1` [P-0265, 4-(4-((1R,5S)-3,8-diazabicyclo[3.2.1]octan-8-yl)-2-(((S)-1-methylpyrrolidin-2-yl)methoxy)quinazolin-7-yl)naphthalen-2-amine], for which the IC50 in assay [1] and in assay [2] was 0.0001 to 10 µM each time.

On to `CN1CCC[C@H]1COc1nc(N2[C@@H]3CC[C@H]2CN(C(=O)NC2CCN(C4CCCCC4)C2)C3)c2ccc(-c3cc(O)cc4ccccc34)cc2n1` (stereo partly drawn) [P-0266, (1R,5S)-N-(1-cyclohexylpyrrolidin-3-yl)-8-(7-(3-hydroxynaphthalen-1-yl)-2-(((S)-1-methylpyrrolidin-2-yl)methoxy)quinazolin-4-yl)-3,8-diazabicyclo[3.2.1]octane-3-carboxamide], for which the IC50 in assay [1] and in assay [2] was 10 to 100 µM throughout.

`CN1CCC[C@H]1COc1nc(N2[C@@H]3CC[C@H]2CN(C(=O)CCCN2CCOCC2)C3)c2ccc(-c3cc(O)cc4ccccc34)cc2n1` [P-0267, 1-((1R,5S)-8-(7-(3-hydroxynaphthalen-1-yl)-2-(((S)-1-methylpyrrolidin-2-yl)methoxy)quinazolin-4-yl)-3,8-diazabicyclo[3.2.1]octan-3-yl)-4-morpholinobutan-1-one]: the IC50 in assay [1] and in assay [2] was 10 to 100 µM in each case.

Regarding `CN1CCC[C@H]1COc1nc(N2[C@@H]3CC[C@H]2CN(c2cnccn2)C3)c2ccc(-c3cc(O)cc4ccccc34)cc2n1` [P-0268, 4-(2-(((S)-1-methylpyrrolidin-2-yl)methoxy)-4-((1R,5S)-3-(pyrazin-2-yl)-3,8-diazabicyclo[3.2.1]octan-8-yl)quinazolin-7-yl)naphthalen-2-ol], the IC50 in assay [1] and in assay [2] was 10 to 100 µM in each case.

As for `CN1CCC[C@H]1COc1nc(N2[C@@H]3CC[C@H]2CN(CC(=O)N2CCNCC2)C3)c2ccc(-c3cc(O)cc4ccccc34)cc2n1` [P-0269, 2-((1R,5S)-8-(7-(3-hydroxynaphthalen-1-yl)-2-(((S)-1-methylpyrrolidin-2-yl)methoxy)quinazolin-4-yl)-3,8-diazabicyclo[3.2.1]octan-3-yl)-1-(piperazin-1-yl)ethan-1-one], the IC50 fell in the range of 0.0001 to 10 µM in assay [1] and 10 to 100 µM in assay [2].

For the molecule `CN1CCC[C@H]1COc1nc(N2[C@@H]3CC[C@H]2CN(c2nccc(N)n2)C3)c2ccc(-c3cc(O)cc4ccccc34)cc2n1` [P-0270, 4-(4-((1R,5S)-3-(4-aminopyrimidin-2-yl)-3,8-diazabicyclo[3.2.1]octan-8-yl)-2-(((S)-1-methylpyrrolidin-2-yl)methoxy)quinazolin-7-yl)naphthalen-2-ol], the figures for the half-inhibitory concentration (IC50) in assay [1] and in assay [2] were 0.0001 to 10 µM and 10 to 100 µM, respectively.

With `CN1CCC[C@H]1COc1nc(N2[C@@H]3CC[C@H]2CN(C(=O)Nc2ccn[nH]2)C3)c2ccc(-c3cc(O)cc4ccccc34)cc2n1` [P-0271, (1R,5S)-8-(7-(3-hydroxynaphthalen-1-yl)-2-(((S)-1-methylpyrrolidin-2-yl)methoxy)quinazolin-4-yl)-N-(1H-pyrazol-5-yl)-3,8-diazabicyclo[3.2.1]octane-3-carboxamide], the IC50 in assay [1] lay within 10 to 100 µM; in assay [2] it was 0.0001 to 10 µM.

Consider `CN1CCC[C@H]1COc1nc(N2[C@@H]3CC[C@H]2CN(CC(O)CO)C3)c2ccc(-c3cc(O)cc4ccccc34)cc2n1` (stereo partly drawn) [P-0272, 3-((1R,5S)-8-(7-(3-hydroxynaphthalen-1-yl)-2-(((S)-1-methylpyrrolidin-2-yl)methoxy)quinazolin-4-yl)-3,8-diazabicyclo[3.2.1]octan-3-yl)propane-1,2-diol], for which the IC50 was in the range of 0.0001 to 10 µM in assay [1] and 10 to 100 µM in assay [2].

On to `CN1CCC[C@H]1COc1nc(N2[C@@H]3CC[C@H]2CN(C(=O)c2cc[nH]n2)C3)c2ccc(-c3cc(O)cc4ccccc34)cc2n1` [P-0273, ((1R,5S)-8-(7-(3-hydroxynaphthalen-1-yl)-2-(((S)-1-methylpyrrolidin-2-yl)methoxy)quinazolin-4-yl)-3,8-diazabicyclo[3.2.1]octan-3-yl)(1H-pyrazol-3-yl)methanone], for which the IC50 in assay [1] and in assay [2] was 10 to 100 µM in each case.

`CN1CCC[C@H]1COc1nc(N2[C@@H]3CC[C@H]2CN(CC(=O)N2CCC(N)CC2)C3)c2ccc(-c3cc(O)cc4ccccc34)cc2n1` [P-0274, 1-(4-aminopiperidin-1-yl)-2-((1R,5S)-8-(7-(3-hydroxynaphthalen-1-yl)-2-(((S)-1-methylpyrrolidin-2-yl)methoxy)quinazolin-4-yl)-3,8-diazabicyclo[3.2.1]octan-3-yl)ethan-1-one]: the results for the IC50 in assay [1] and in assay [2] were 0.0001 to 10 µM and 100 to 1000 µM, respectively.
